Measurements from ChEMBL document CHEMBL1152560, “Substituted 2-arylbenzothiazoles as kinase inhibitors: hit-to-lead optimization” (Bioorg Med Chem, 2009).

Columns and labels:
[1] = molecular target: Death-associated protein kinase 2 (Homo sapiens) (UniProt Q9UIK4); experiment: Residual activity of DAPK2 at 1 uM by microplate scintillation counting
[2] = molecular target: NT-3 growth factor receptor (Homo sapiens) (UniProt Q16288); experiment: Residual activity of TRK-C at 0.1 uM by microplate scintillation counting
Sequence of NT-3 growth factor receptor (Homo sapiens) (Q16288 32-839 limits assumed): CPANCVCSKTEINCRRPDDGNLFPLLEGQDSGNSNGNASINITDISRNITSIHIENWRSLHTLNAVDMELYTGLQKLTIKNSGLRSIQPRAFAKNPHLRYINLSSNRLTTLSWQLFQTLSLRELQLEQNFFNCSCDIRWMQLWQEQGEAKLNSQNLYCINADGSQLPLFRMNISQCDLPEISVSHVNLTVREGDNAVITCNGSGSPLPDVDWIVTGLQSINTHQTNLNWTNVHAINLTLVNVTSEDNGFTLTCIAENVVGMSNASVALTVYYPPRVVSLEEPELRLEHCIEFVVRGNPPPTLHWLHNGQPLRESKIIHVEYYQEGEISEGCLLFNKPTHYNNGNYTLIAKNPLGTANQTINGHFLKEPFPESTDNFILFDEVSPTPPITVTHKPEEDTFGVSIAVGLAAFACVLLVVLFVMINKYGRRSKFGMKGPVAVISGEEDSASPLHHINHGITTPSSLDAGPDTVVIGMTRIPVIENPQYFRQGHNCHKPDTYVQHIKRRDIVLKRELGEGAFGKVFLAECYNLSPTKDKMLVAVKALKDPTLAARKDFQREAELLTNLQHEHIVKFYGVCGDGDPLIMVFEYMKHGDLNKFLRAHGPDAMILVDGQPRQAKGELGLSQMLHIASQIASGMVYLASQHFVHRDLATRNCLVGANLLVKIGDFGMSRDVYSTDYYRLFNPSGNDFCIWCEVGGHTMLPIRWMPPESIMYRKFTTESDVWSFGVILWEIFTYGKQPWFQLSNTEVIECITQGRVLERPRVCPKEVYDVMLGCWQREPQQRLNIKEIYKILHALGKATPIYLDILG

[3] = molecular target: Insulin receptor-related protein (Homo sapiens) (UniProt P14616); experiment: Residual activity of INSRR at 10 uM by microplate scintillation counting
Sequence of Insulin receptor-related protein (Homo sapiens) (P14616 27-742 limits assumed): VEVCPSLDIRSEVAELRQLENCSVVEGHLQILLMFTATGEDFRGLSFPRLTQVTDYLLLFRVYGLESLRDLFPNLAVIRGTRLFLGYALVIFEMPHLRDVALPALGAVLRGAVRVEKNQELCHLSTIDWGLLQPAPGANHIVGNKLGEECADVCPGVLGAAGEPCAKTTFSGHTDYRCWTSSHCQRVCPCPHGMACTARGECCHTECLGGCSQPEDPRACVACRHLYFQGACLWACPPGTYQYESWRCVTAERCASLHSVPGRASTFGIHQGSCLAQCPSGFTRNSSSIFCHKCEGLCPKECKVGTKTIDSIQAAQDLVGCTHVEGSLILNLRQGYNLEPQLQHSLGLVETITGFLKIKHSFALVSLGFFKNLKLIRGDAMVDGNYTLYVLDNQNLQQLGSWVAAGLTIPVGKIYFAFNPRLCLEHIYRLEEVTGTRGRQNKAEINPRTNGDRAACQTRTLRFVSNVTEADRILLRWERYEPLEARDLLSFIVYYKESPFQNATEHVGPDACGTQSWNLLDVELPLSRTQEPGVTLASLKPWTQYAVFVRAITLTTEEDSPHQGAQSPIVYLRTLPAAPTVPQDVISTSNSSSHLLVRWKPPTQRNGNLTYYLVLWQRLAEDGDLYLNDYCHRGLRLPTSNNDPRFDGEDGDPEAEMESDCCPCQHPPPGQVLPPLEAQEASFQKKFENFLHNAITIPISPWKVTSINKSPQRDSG
Sequence of Insulin receptor-related protein (Homo sapiens) (P14616 747-1297 limits assumed): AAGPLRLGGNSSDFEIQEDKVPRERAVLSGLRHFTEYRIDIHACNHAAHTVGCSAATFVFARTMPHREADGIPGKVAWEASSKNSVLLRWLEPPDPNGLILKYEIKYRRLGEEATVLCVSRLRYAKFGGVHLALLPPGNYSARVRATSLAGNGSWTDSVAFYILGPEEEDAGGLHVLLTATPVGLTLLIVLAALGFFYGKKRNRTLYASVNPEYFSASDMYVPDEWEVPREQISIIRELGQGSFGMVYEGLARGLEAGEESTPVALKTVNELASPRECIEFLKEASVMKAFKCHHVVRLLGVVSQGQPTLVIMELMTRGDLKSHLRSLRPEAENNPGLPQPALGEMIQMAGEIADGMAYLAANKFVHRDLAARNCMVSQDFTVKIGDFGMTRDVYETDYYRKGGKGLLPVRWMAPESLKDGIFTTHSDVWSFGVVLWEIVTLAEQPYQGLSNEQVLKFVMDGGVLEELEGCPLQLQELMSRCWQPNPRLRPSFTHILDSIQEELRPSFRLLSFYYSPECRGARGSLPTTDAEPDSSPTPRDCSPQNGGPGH

[4] = molecular target: Activin receptor type-1-like (Homo sapiens) (UniProt P37023); experiment: Residual activity of ACV-RL1 at 10 uM by microplate scintillation counting
Sequence of Activin receptor type-1-like (Homo sapiens) (P37023 whole entry): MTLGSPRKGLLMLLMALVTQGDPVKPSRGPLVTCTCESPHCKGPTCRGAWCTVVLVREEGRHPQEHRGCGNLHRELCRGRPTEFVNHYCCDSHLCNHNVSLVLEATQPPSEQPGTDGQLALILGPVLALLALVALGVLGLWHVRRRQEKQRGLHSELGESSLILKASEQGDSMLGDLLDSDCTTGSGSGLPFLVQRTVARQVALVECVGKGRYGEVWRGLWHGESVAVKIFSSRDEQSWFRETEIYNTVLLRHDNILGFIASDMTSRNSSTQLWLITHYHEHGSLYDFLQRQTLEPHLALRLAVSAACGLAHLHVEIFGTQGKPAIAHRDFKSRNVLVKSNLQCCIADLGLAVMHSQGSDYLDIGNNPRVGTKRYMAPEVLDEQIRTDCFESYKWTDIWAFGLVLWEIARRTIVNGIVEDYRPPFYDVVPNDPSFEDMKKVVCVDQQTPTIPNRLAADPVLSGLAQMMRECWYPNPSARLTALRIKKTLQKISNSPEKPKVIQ

[5] = molecular target: Eukaryotic translation initiation factor 2-alpha kinase 1 (Homo sapiens) (UniProt Q9BQI3); experiment: Residual activity of HRI at 0.1 uM by microplate scintillation counting
Sequence of Eukaryotic translation initiation factor 2-alpha kinase 1 (Homo sapiens) (Q9BQI3 whole entry): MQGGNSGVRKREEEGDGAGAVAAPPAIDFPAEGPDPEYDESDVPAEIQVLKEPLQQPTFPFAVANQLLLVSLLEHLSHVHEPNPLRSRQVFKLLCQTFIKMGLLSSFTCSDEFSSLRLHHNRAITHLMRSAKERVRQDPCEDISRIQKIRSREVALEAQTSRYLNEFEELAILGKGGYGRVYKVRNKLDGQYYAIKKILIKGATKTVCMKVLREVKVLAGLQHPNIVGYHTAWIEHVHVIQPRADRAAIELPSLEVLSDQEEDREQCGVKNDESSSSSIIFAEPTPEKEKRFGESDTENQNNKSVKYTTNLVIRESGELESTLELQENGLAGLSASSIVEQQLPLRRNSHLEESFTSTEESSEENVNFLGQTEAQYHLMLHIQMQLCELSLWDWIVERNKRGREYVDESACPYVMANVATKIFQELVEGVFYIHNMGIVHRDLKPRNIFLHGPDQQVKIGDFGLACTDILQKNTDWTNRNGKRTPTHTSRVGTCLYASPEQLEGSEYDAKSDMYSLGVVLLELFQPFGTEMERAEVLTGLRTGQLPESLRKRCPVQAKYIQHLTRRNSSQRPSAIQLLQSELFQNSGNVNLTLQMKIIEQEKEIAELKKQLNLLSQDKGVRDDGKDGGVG

[6] = molecular target: T1, Tyrosine-protein kinase ITK/TSK (Homo sapiens) (UniProt Q08881); experiment: Residual activity of ITK at 10 uM by microplate scintillation counting
T1 sequence (whole entry): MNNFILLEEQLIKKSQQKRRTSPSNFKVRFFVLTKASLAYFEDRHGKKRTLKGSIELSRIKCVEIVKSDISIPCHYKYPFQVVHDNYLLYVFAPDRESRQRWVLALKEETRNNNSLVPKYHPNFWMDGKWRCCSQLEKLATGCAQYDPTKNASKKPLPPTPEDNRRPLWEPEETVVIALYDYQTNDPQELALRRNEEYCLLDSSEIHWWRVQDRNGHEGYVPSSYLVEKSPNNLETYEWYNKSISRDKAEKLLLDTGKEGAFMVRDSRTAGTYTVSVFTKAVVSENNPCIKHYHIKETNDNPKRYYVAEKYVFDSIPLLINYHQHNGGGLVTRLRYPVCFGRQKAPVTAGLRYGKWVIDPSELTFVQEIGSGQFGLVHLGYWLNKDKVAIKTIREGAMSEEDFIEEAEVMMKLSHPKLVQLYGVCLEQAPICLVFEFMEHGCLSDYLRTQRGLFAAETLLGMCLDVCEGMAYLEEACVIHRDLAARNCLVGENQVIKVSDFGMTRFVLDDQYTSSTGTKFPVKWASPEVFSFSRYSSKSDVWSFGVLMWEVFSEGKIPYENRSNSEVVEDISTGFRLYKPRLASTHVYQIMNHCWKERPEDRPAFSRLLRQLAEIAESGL

[7] = molecular target: T2, Serine/threonine-protein kinase Nek1 (Homo sapiens) (UniProt Q96PY6); experiment: Residual activity of NEK1 at 10 uM by microplate scintillation counting
T2 sequence (whole entry): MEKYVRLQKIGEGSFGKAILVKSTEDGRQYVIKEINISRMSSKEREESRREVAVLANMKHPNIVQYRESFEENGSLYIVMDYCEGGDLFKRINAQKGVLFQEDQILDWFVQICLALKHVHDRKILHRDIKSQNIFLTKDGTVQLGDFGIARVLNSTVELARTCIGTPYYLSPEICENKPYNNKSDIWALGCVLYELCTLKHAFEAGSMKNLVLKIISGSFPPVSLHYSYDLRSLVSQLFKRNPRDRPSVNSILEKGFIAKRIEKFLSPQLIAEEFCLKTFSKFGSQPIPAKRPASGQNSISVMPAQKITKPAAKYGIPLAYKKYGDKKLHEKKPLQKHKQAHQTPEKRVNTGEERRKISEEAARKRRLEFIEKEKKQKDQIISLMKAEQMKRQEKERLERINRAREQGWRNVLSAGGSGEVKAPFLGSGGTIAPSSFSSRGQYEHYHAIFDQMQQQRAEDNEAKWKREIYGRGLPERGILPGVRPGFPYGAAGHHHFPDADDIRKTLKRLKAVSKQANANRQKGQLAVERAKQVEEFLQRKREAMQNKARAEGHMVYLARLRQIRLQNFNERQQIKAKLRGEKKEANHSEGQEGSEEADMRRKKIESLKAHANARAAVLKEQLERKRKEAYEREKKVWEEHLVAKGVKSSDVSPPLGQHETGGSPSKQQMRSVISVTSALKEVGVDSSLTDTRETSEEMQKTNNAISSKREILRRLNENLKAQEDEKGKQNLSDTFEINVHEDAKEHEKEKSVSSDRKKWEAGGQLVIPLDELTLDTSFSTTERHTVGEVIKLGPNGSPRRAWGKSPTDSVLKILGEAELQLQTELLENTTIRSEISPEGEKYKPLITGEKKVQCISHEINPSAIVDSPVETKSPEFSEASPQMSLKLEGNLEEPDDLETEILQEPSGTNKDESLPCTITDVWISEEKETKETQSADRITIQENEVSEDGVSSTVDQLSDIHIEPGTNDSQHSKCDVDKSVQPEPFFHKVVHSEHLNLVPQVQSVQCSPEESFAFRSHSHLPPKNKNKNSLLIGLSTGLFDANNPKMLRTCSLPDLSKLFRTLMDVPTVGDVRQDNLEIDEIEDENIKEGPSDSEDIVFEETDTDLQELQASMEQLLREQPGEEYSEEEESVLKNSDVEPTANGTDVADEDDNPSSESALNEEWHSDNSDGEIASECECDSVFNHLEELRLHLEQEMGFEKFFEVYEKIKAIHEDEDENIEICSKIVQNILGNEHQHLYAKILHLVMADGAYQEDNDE

[8] = molecular target: RAC-beta serine/threonine-protein kinase (Homo sapiens) (UniProt P31751); experiment: Residual activity of AKT2 at 1 uM by microplate scintillation counting
Sequence of RAC-beta serine/threonine-protein kinase (Homo sapiens) (P31751 whole entry): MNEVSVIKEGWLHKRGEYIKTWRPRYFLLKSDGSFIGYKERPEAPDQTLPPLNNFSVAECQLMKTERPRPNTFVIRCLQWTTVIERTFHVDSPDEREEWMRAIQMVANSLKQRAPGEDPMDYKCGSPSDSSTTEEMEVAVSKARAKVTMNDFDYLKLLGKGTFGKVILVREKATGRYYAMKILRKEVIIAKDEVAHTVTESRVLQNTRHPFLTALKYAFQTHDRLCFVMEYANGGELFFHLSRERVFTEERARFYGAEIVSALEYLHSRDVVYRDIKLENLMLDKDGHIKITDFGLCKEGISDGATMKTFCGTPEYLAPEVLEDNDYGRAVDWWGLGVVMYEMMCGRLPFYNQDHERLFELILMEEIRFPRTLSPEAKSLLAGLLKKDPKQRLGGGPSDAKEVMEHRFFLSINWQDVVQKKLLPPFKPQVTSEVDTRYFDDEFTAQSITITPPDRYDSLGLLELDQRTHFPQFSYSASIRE

[9] = molecular target: T3, Cytoplasmic tyrosine-protein kinase BMX (Homo sapiens) (UniProt P51813); experiment: Residual activity of BMX at 1 uM by microplate scintillation counting
T3 sequence (whole entry): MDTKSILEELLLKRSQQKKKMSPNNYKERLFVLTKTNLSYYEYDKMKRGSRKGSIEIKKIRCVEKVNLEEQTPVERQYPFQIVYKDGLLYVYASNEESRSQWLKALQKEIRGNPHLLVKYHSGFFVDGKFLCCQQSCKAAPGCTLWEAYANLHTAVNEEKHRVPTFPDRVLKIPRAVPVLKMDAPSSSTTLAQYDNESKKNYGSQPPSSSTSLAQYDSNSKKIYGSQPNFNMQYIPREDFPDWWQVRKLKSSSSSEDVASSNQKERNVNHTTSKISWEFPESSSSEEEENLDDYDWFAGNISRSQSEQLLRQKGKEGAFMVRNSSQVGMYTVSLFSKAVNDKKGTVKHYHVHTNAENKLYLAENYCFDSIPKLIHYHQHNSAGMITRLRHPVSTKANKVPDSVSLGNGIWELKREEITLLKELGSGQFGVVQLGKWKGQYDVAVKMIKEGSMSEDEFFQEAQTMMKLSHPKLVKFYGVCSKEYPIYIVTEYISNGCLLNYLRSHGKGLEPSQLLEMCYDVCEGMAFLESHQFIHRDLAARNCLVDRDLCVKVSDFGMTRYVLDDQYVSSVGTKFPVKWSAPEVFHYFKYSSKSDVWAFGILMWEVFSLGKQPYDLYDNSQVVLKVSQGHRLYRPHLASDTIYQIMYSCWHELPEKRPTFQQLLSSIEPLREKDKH

[10] = molecular target: Tyrosine-protein kinase CSK (Homo sapiens) (UniProt P41240); experiment: Residual activity of CSK at 10 uM by microplate scintillation counting
Sequence of Tyrosine-protein kinase CSK (Homo sapiens) (P41240 2-450 limits assumed): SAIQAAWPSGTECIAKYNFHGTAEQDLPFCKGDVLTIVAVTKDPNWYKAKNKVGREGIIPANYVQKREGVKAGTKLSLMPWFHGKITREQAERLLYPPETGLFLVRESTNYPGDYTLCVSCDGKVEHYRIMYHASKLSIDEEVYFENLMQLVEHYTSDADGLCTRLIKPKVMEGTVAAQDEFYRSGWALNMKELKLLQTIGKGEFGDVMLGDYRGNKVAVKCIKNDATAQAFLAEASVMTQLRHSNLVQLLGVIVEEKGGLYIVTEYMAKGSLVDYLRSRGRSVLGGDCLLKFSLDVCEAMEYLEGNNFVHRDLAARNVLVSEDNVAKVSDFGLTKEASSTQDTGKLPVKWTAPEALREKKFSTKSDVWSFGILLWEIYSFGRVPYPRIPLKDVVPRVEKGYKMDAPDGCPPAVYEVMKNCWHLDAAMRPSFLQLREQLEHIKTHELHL

Sequence of Death-associated protein kinase 2 (Homo sapiens) (Q9UIK4 whole entry, looked up): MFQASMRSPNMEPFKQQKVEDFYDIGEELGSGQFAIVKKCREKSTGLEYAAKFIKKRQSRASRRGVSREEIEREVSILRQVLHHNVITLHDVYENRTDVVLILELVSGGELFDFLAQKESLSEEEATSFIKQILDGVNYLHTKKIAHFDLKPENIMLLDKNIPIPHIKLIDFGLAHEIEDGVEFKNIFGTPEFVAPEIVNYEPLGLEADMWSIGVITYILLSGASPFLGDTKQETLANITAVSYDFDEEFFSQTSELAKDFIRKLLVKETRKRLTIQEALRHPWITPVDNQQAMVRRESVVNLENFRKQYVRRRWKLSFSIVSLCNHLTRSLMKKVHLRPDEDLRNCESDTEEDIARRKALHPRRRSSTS

residual activity [2] | residual activity [3] | residual activity [4] | residual activity [5] | residual activity [6] | residual activity [7] | residual activity [8] | residual activity [9] | residual activity [10] | Compound | residual activity [1]
109% | 43% | 87% | 92% | 117% | 93% | 91% | 127% | 17% | COc1cc2c(Oc3ccc(-c4nc5ccccc5s4)cc3)ncnc2cc1OCCCN1CCCC1 | 92%
97% | 51% | 84% | 113% | 99% | 104% | 83% | 122% | 18% | COc1cc2c(Oc3ccc(-c4nc5ccccc5s4)cc3)ncnc2cc1OCCCN1CCN(C)CC1 | 79%
110% | 7% | 91% | 98% | 63% | 101% | 113% | 128% | 3% | COc1cc2c(Oc3ccc(-c4nc5ccccc5s4)cc3F)ncnc2cc1OCCCN1CCN(C)CC1 | 90%
